Laboratory results as given in US20190135857A1, “TR[…] HUMAN IMMUNODEFICIENCY VIRUS REPLICATION” (priority 2016, published 2019).

These compounds were tested on recombinant NL4-3 virus (nef section replaced with Renilla luciferase gene, Gag P373S) (assay: HIV Cell Culture Assay). Details: NL43.
Type: cell-based
Experimental: MT-2 cells and 293T cells were obtained from the NIH AIDS Research and Reference Reagent Program. MT-2 cells were propagated in RPMI 1640 media supplemented with 10% heat inactivated fetal bovine serum, […]. The 293T cells were propagated in DMEM media supplemented with 10% heat inactivated fetal bovine serum (FBS), 100 units/ml penicillin G and 100 μg/ml streptomycin. The proviral DNA clone of NL4-3 was obtained from the NIH AIDS Research and Reference Reagent Program. A recombinant NL4-3 virus, in which a section of the nef gene from NL4-3 was replaced with the Renilla luciferase gene, was used as a reference virus. In addition, residue Gag P373 was converted to P373S. Briefly, the recombinant virus was prepared by transfection of the altered proviral clone of NL4-3. Transfections were performed in 293T cells using LipofectAMINE PLUS from Invitrogen (Carlsbad, Calif.), according to manufacturer's instruction. The virus was titered in MT-2 cells using luciferase enzyme activity as a marker. Luciferase was quantitated using the Dual Luciferase kit from Promega (Madison, Wis.), with modifications to the manufacturer's protocol. The diluted Passive Lysis solution was pre-mixed with the re-suspended Luciferase Assay Reagent and the re-suspended Stop & Glo Substrate (2:1:1 ratio). Fifty (50) μL of the mixture was added to each aspirated well on assay plates and luciferase activity was measured immediately on a Wallac TriLux (Perkin-Elmer). Antiviral activities of inhibitors toward the recombinant virus were quantified by measuring luciferase activity in cells infected for 4-5 days with NLRluc recombinants in the presence serial dilutions of the inhibitor. Note that some of the data is provided in abbreviated exponential form such that, for example, 2.53E−3, is equivalent to 2.53×10^−3.

`CC(C)[C@@H]1CC[C@]2(NC(=O)NCCN(C)C)CC[C@]3(C)[C@H](CC[C@@H]4[C@@]5(C)CC[C@@H](c6ccc(C(=O)O)cc6)C(C)(C)[C@@H]5CC[C@]43C)[C@@H]12` (single isomer, unassigned) [Example B5] and `CC(C)[C@@H]1CC[C@]2(NC(=O)NCCCN(C)C)CC[C@]3(C)[C@H](CC[C@@H]4[C@@]5(C)CC[C@@H](c6ccc(C(=O)O)cc6)C(C)(C)[C@@H]5CC[C@]43C)[C@@H]12` (single isomer, unassigned) [Example B6] are within 1.5-fold of each other in EC50: 5.16 nM for the first, 5.13 nM for the second.

`CC(C)[C@@H]1CC[C@]2(NC(=O)OCCN(C)C)CC[C@]3(C)[C@H](CC[C@@H]4[C@@]5(C)CC[C@@H](c6ccc(C(=O)O)cc6)C(C)(C)[C@@H]5CC[C@]43C)[C@@H]12` (single isomer, unassigned) [Example B7] and `CC(C)[C@@H]1CC[C@]2(NC(=O)OCCCN(C)C)CC[C@]3(C)[C@H](CC[C@@H]4[C@@]5(C)CC[C@@H](c6ccc(C(=O)O)cc6)C(C)(C)[C@@H]5CC[C@]43C)[C@@H]12` (single isomer, unassigned) [Example B8] are within 1.5-fold of each other in EC50: 6.45 nM for the first, 4.49 nM for the second.

Going from `CC(C)[C@@H]1CC[C@]2(NC(=O)CN(C)C)CC[C@]3(C)[C@H](CC[C@@H]4[C@@]5(C)CC[C@@H](c6ccc(C(=O)O)cc6)C(C)(C)[C@@H]5CC[C@]43C)[C@@H]12` (single isomer, unassigned) [Example B9] to `CC(C)[C@@H]1CC[C@]2(NC(=O)CCN(C)C)CC[C@]3(C)[C@H](CC[C@@H]4[C@@]5(C)CC[C@@H](c6ccc(C(=O)O)cc6)C(C)(C)[C@@H]5CC[C@]43C)[C@@H]12` (single isomer, unassigned) [Example B10], the EC50 falls from 10 nM to 3.81 nM (2.6-fold).

Compared with `CC(C)[C@@H]1CC[C@]2(NC(=O)CCCN(C)C)CC[C@]3(C)[C@H](CC[C@@H]4[C@@]5(C)CC[C@@H](c6ccc(C(=O)O)cc6)C(C)(C)[C@@H]5CC[C@]43C)[C@@H]12` (single isomer, unassigned) [Example B11], `CC(C)[C@@H]1CC[C@]2(C(=O)NCCCN(C)C)CC[C@]3(C)[C@H](CC[C@@H]4[C@@]5(C)CC[C@@H](c6ccc(C(=O)O)cc6)C(C)(C)[C@@H]5CC[C@]43C)[C@@H]12` [Example B3, 4-((1S,3aS,5aR,5bR,7aS,9R,11aS,11bR,13aR,13bR)-3a-((3-(dimethylamino)propyl)carbamoyl)-1-isopropyl-5a,5b,8,8,11a-pentamethylicosahydro-1H-cyclopenta[a]chrysen-9-yl)benzoic acid] is 2.5-fold lower in EC50: 5.94 nM for the first, 2.33 nM for the second.

First: CC(C)[C@@H]1CC[C@]2(NCCN3C[C@@H]4C[C@H]3CS4(=O)=O)CC[C@]3(C)[C@H](CC[C@@H]4[C@@]5(C)CC[C@@H](c6ccc(C(=O)O)cc6)C(C)(C)[C@@H]5CC[C@]43C)[C@@H]12 (single isomer, unassigned) [Example B12]
Second: CC(C)[C@@H]1CC[C@]2(NCCN3CCC(S(C)(=O)=O)CC3)CC[C@]3(C)[C@H](CC[C@@H]4[C@@]5(C)CC[C@@H](c6ccc(C(=O)O)cc6)C(C)(C)[C@@H]5CC[C@]43C)[C@@H]12 [Example B13, 4-((1S,3aS,5aR,5bR,7aS,9R,11aS,11bR,13aR,13bR)-1-isopropyl-5a,5b,8,8,11a-pentamethyl-3a-((2-(4-(methylsulfonyl)piperidin-1-yl)ethyl)amino)icosahydro-1H-cyclopenta[a]chrysen-9-yl)benzoic acid]
The EC50 of the first is 2.6-fold lower: 0.605 nM for the first, 1.58 nM for the second. The first is the more potent here.

First: CC(C)[C@@H]1CC[C@]2(C(=O)O)CC[C@]3(C)[C@H](CC[C@@H]4[C@@]5(C)CC[C@@H](c6ccc(C(=O)O)cc6)C(C)(C)[C@@H]5CC[C@]43C)[C@@H]12 [Example B1, (1S,3aS,5aR,5bR,7aS,9R,11aS,11bR,13aR,13bR)-9-(4-carboxyphenyl)-1-isopropyl-5a,5b,8,8,8,11a-pentamethylicosahydro-1H-cyclopenta[a]chrysene-3a-carboxylic acid]
Second: CC(C)[C@@H]1CC[C@]2(N)CC[C@]3(C)[C@H](CC[C@@H]4[C@@]5(C)CC[C@@H](c6ccc(C(=O)O)cc6)C(C)(C)[C@@H]5CC[C@]43C)[C@@H]12 [Example B4, 4-((1S,3aS,5aR,5bR,7aS,9R,11aS,11bR,13aR,13bR)-3a-amino-1-isopropyl-5a,5b,8,8,11a-pentamethylicosahydro-1H-cyclopenta[a]chrysen-9-yl)benzoic acid]
The EC50 of the first is 2.2-fold higher: 10 nM for the first, 4.53 nM for the second. The second is the more potent here.

For `CC(C)[C@@H]1CC[C@]2(C(=O)NCCN(C)C)CC[C@]3(C)[C@H](CC[C@@H]4[C@@]5(C)CC[C@@H](c6ccc(C(=O)O)cc6)C(C)(C)[C@@H]5CC[C@]43C)[C@@H]12` [Example B2, 4-((1S,3aS,5aR,5bR,7aS,9R,11aS,11bR,13aR,13bR)-3a-((2-(dimethylamino)ethyl)carbamoyl)-1-isopropyl-5a,5b,8,8,11a-pentamethylicosahydro-1H-cyclopenta[a]chrysen-9-yl)benzoic acid], the EC50 was 2.53 nM.
